Data from ChEMBL document CHEMBL1201862, “PubChem BioAssay data set” (2004).
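Step 1: Grow cells in 96-well plates. Step 2: Expose to compound for 48 hours at 5 concentrations. Step 3: Interpolate endpoints linearly; if unreached, use highest concentration. GI50 is the concentration that inhibits growth by half.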 The source made the active and inactive calls. Rule as the data show it: active = GI50 up to about 1.1 µM and inactive = higher.

Experiments:
Assay in all cases: NCI tumour cell line growth inhibition, 48 h
ACHN = test system: ACHN
HOP-92 = test system: HOP-92
K562 = test system: K562
MDA-MB-435 = test system: MDA-MB-435
NCI-H23 = test system: NCI-H23
OVCAR-8 = test system: OVCAR-8
SF-268 = test system: SF-268
SF-539 = test system: SF-539
SNB-19 = test system: SNB-19
SNB-75 = test system: SNB-75
SR = test system: SR
T47D = test system: T47D
TK-10 = test system: TK-10
UACC-257 = test system: UACC-257
HL-60 = test system: HL-60
MDA-MB-231 = test system: MDA-MB-231
NCI-H226 = test system: NCI-H226
A498 = test system: A498
RXF 393 = test system: RXF 393
BT-549 = test system: BT-549

Row | SMILES | GI50 (ACHN) | GI50 (HOP-92) | GI50 (K562) | GI50 (MDA-MB-435) | GI50 (NCI-H23) | GI50 (OVCAR-8) | GI50 (SF-268) | GI50 (SF-539) | GI50 (SNB-19) | GI50 (SNB-75) | GI50 (SR) | GI50 (T47D) | GI50 (TK-10) | GI50 (UACC-257) | GI50 (HL-60) | GI50 (MDA-MB-231) | GI50 (NCI-H226) | GI50 (A498) | GI50 (RXF 393) | GI50 (BT-549)
1 | COC(=O)c1c[nH]c(=O)[nH]c1=O [ISOOROTIC ACID METHYL ESTER] | > 100 µM (inactive) | 30.5 µM (inactive) | > 100 µM (inactive) | > 100 µM (inactive) | > 100 µM (inactive) | > 100 µM (inactive) | > 100 µM (inactive) | > 100 µM (inactive) | > 100 µM (inactive) | > 100 µM (inactive) | > 100 µM (inactive) | > 100 µM (inactive) | > 100 µM (inactive) | > 100 µM (inactive) | – | – | – | – | – | –
2 | COc1c(O)c(OC)c(C(=O)/C=C/c2ccccc2)c(O)c1OC [PEDICIN] | 23.6 µM (inactive) | 21.2 µM (inactive) | 40.6 µM (inactive) | 27.9 µM (inactive) | – | 17.9 µM (inactive) | 29 µM (inactive) | 30.5 µM (inactive) | 92 µM (inactive) | 30.3 µM (inactive) | – | 20.9 µM (inactive) | 36.3 µM (inactive) | > 100 µM (inactive) | 58.2 µM (inactive) | 21.3 µM (inactive) | 29.4 µM (inactive) | – | – | –
3 | CC1=NN(c2nc(N)nc(-c3ccccc3S(N)(=O)=O)n2)C(C)(C)C1 | 4.44 µM (inactive) | > 100 µM (inactive) | 35.2 µM (inactive) | 37.8 µM (inactive) | 20.1 µM (inactive) | 16 µM (inactive) | 8.24 µM (inactive) | 27.4 µM (inactive) | – | – | 5.85 µM (inactive) | 23.8 µM (inactive) | 9.51 µM (inactive) | 30.2 µM (inactive) | 6.03 µM (inactive) | 22.2 µM (inactive) | 9.2 µM (inactive) | 22.4 µM (inactive) | 14 µM (inactive) | –
4 | CC(=O)C1C(=O)C(=O)N(c2cccc(C)c2C)C1=O (configuration not stated) | > 100 µM (inactive) | > 100 µM (inactive) | – | – | > 100 µM (inactive) | > 100 µM (inactive) | – | > 100 µM (inactive) | > 100 µM (inactive) | > 100 µM (inactive) | – | > 100 µM (inactive) | > 100 µM (inactive) | > 100 µM (inactive) | > 100 µM (inactive) | > 100 µM (inactive) | > 100 µM (inactive) | – | – | > 100 µM (inactive)
5 | CC(=O)O/N=C1\C=Cc2c(no[n+]2[O-])C1=O | 17.1 µM (inactive) | – | 35 µM (inactive) | 20.6 µM (inactive) | 20 µM (inactive) | 12.3 µM (inactive) | 20.8 µM (inactive) | 17.3 µM (inactive) | > 100 µM (inactive) | 19.8 µM (inactive) | 15.8 µM (inactive) | 25.6 µM (inactive) | 15.6 µM (inactive) | 18.2 µM (inactive) | – | 18.9 µM (inactive) | > 100 µM (inactive) | 16.4 µM (inactive) | 15.2 µM (inactive) | –
6 | S=C(N/N=C\C=N/NC(=S)N1CCCCC1)N1CCCCC1 | 0.267 µM (active) | 3.23 µM (inactive) | 0.547 µM (active) | 1.01 µM (active) | 1.16 µM (inactive) | 0.178 µM (active) | 0.231 µM (active) | 0.435 µM (active) | 0.41 µM (active) | 0.731 µM (active) | – | 0.287 µM (active) | 1.61 µM (inactive) | 1.25 µM (inactive) | – | > 96.2 µM (inactive) | 0.489 µM (active) | 1.34 µM (inactive) | 0.296 µM (active) | –
7 | CC1=C2C(=O)c3ccccc3C(=O)[C@H]2C[C@@H](N2CCCCCC2=O)O1 | 23.4 µM (inactive) | 19.4 µM (inactive) | 19.8 µM (inactive) | 16 µM (inactive) | 14.9 µM (inactive) | 21.5 µM (inactive) | 20.9 µM (inactive) | 19 µM (inactive) | 21 µM (inactive) | 23.4 µM (inactive) | 6.92 µM (inactive) | 20.8 µM (inactive) | 23 µM (inactive) | 17.4 µM (inactive) | 19 µM (inactive) | 22.5 µM (inactive) | 30.5 µM (inactive) | > 100 µM (inactive) | 27 µM (inactive) | –
8 | Cc1cccc2[s+]snc12 | 63.5 µM (inactive) | 23.1 µM (inactive) | 24.9 µM (inactive) | – | > 96.6 µM (inactive) | > 45 µM (inactive) | > 100 µM (inactive) | > 100 µM (inactive) | > 100 µM (inactive) | > 100 µM (inactive) | 31.3 µM (inactive) | – | > 100 µM (inactive) | > 76.9 µM (inactive) | 18 µM (inactive) | – | > 100 µM (inactive) | > 100 µM (inactive) | 47.3 µM (inactive) | –
9 | CC1CCOc2ccc(cc2)/C=N\c2ccc(cc2)-c2ccc(cc2)/N=C\c2ccc(cc2)OCC1 | > 100 µM (inactive) | > 100 µM (inactive) | > 100 µM (inactive) | > 100 µM (inactive) | > 100 µM (inactive) | > 100 µM (inactive) | > 100 µM (inactive) | > 100 µM (inactive) | – | – | > 100 µM (inactive) | – | > 100 µM (inactive) | > 100 µM (inactive) | > 100 µM (inactive) | > 100 µM (inactive) | > 100 µM (inactive) | – | – | > 100 µM (inactive)
10 | O=C(CC(C(=O)c1ccco1)c1ccco1)c1ccco1 (configuration not stated) | > 100 µM (inactive) | > 100 µM (inactive) | > 100 µM (inactive) | > 100 µM (inactive) | > 100 µM (inactive) | > 100 µM (inactive) | > 100 µM (inactive) | > 100 µM (inactive) | – | > 100 µM (inactive) | > 100 µM (inactive) | > 100 µM (inactive) | > 100 µM (inactive) | > 100 µM (inactive) | > 100 µM (inactive) | 78.9 µM (inactive) | > 100 µM (inactive) | > 100 µM (inactive) | > 100 µM (inactive) | –
11 | CC(C)=CCC/C(C)=C/CCC1(C)C2COC(=O)C21 (configuration not stated) | > 100 µM (inactive) | 18.2 µM (inactive) | 22.6 µM (inactive) | 65.5 µM (inactive) | 51.3 µM (inactive) | – | > 100 µM (inactive) | – | 82.8 µM (inactive) | – | 37 µM (inactive) | – | > 100 µM (inactive) | > 100 µM (inactive) | 19.8 µM (inactive) | > 100 µM (inactive) | > 100 µM (inactive) | > 100 µM (inactive) | > 100 µM (inactive) | 49.8 µM (inactive)
12 | O=C(CNc1nccs1)Nn1cnc2ccc(S(=O)(=O)Nc3nccs3)cc2c1=O | > 100 µM (inactive) | > 100 µM (inactive) | > 100 µM (inactive) | > 100 µM (inactive) | > 100 µM (inactive) | > 100 µM (inactive) | > 100 µM (inactive) | > 100 µM (inactive) | > 100 µM (inactive) | > 100 µM (inactive) | 35.6 µM (inactive) | – | > 100 µM (inactive) | > 100 µM (inactive) | > 100 µM (inactive) | > 100 µM (inactive) | > 100 µM (inactive) | – | – | > 100 µM (inactive)
13 | Nc1ncnc2c1ncn2C1CC(O)C(CO)O1 (configuration not stated) | > 100 µM (inactive) | > 100 µM (inactive) | > 100 µM (inactive) | > 100 µM (inactive) | > 100 µM (inactive) | > 100 µM (inactive) | > 100 µM (inactive) | > 100 µM (inactive) | > 100 µM (inactive) | > 100 µM (inactive) | > 100 µM (inactive) | > 100 µM (inactive) | > 100 µM (inactive) | > 100 µM (inactive) | > 100 µM (inactive) | > 100 µM (inactive) | > 100 µM (inactive) | > 100 µM (inactive) | > 100 µM (inactive) | –
14 | CCC(CCCN)Nc1cc(OC)cc2c(C)ccnc12 (configuration not stated) | 18.3 µM (inactive) | 14 µM (inactive) | 15 µM (inactive) | 14.8 µM (inactive) | – | 21.1 µM (inactive) | 15.3 µM (inactive) | 18.4 µM (inactive) | 11.3 µM (inactive) | 12.7 µM (inactive) | 15.3 µM (inactive) | – | 17.7 µM (inactive) | 17.9 µM (inactive) | 12.4 µM (inactive) | 13.3 µM (inactive) | 13.3 µM (inactive) | 18.7 µM (inactive) | 13.8 µM (inactive) | 14.9 µM (inactive)
15 | COC(=O)C1C(=O)NC2(C)CC1c1ccccc1O2 (configuration not stated) | > 100 µM (inactive) | > 100 µM (inactive) | > 100 µM (inactive) | – | > 100 µM (inactive) | > 100 µM (inactive) | > 100 µM (inactive) | > 100 µM (inactive) | > 100 µM (inactive) | 62.7 µM (inactive) | > 100 µM (inactive) | – | > 100 µM (inactive) | > 100 µM (inactive) | > 100 µM (inactive) | – | > 100 µM (inactive) | > 100 µM (inactive) | > 100 µM (inactive) | –
16 | Cc1ccc(S(=O)(=O)Nn2c(-c3ccccc3)c(C#N)c(-c3ccc(Cl)cc3)c(C#N)c2=O)cc1 | 22 µM (inactive) | 19.5 µM (inactive) | 33.7 µM (inactive) | 33.3 µM (inactive) | – | – | – | 21.1 µM (inactive) | 31.2 µM (inactive) | – | – | – | 38 µM (inactive) | 32.8 µM (inactive) | 14.6 µM (inactive) | 20 µM (inactive) | – | 21.8 µM (inactive) | 25.2 µM (inactive) | 18.5 µM (inactive)
17 | CN1Cc2cc3cc4c(cc3nc2N(C)C1)OCCO4 | > 100 µM (inactive) | > 100 µM (inactive) | > 100 µM (inactive) | > 100 µM (inactive) | – | > 100 µM (inactive) | > 100 µM (inactive) | > 100 µM (inactive) | > 100 µM (inactive) | > 100 µM (inactive) | – | – | > 100 µM (inactive) | > 100 µM (inactive) | – | > 100 µM (inactive) | > 100 µM (inactive) | 68.4 µM (inactive) | > 100 µM (inactive) | > 100 µM (inactive)
